Columns and labels:
Assay type in all cases: in vivo
Cobra tomatoes = experiment: Trial 2: LCO dose and timing on greenhouse tomato (Cobra)
Experimental: The Cobra variety was used to re-examine optimal doses of LCO. The concentrations tested were 50 ng and 75 ng LCO per plant, applied once (2 weeks after transplanting) and twice (4 weeks after transplanting). The sample number was increased to 20 plants.

[1] = tested on: greenhouse-grown tomato plants; experiment: Experiments 1 and 2: effect of LCO on tomato flowering; conditions: for difference in flowering between LCO treated plants and control: Experiment 2
Experimental: Two experiments were performed to investigate effect of LCO on plant's flowering using greenhouse-grown tomato plants.

tomato crop = experiment: Trial 3: summer field trial, foliar LCO on tomato yield; conditions: for advanced fruiting over control: single application
Experimental: An investigation was conducted to examine whether foliar applications of LCO led to increased yield in tomato crop production. To determine concentrations or strengths to be applicable, testing was conducted with a logarithmic increase in strength from 1 nanogram (ng) to 1000 ng/plant sprayed once, and on half, twice. The trial results are presented in the following FIGS. 11-13 and Tables 6 and 7. The parameter of interest was ripened fruit which was harvested 2 or 3 times a week, recording each time, both fruit weight and number of fruit per set of replicates. It was known that fruit arise from pollinated flowers and that an increase in the one leads to the other. FIG. 11 records, cumulative harvested (red) fruit per treatment. For the single LCO application it will be seen that the 10 and 100 ng/plant treatments have advanced fruiting by some 10 days over control (horizontal separation in weeks). That advance has allowed the plant to bear and ripen more fruit over the season for these treatments (see FIG. 11 note height over control and Tables 6 and 7 for actual weights and numbers harvested). Table 6 and FIG. 12 record harvested weight and numbers of ripened fruit over season and it can be seen that the average weight of the tomatoes is not different between treatments and control. Thus the increase in harvested weight was due to an increase in numbers harvested, in agreement with actual enumeration.

[2] = 1 ng LCO per plant, applied once
[3] = 1 ng LCO per plant, applied twice
[4] = 10 ng LCO per plant, applied once
[5] = 10 ng LCO per plant, applied twice
[6] = 100 ng LCO per plant, applied once
[7] = 100 ng LCO per plant, applied twice
[8] = 1000 ng LCO per plant, applied once
[9] = 1000 ng LCO per plant, applied twice
[10] = single application of 10 ng LCO/plant

Substance: Lipo-chitooligosaccharides [LCO]
- advance in flowering (attaining same flower number as control) (Cobra tomatoes; 50 ng treatment): ~3 days
- advance of equivalent fruit numbers over control (Cobra tomatoes; 50 ng/plant application twice): 2 weeks
- Flower Number/Plant (Cobra tomatoes; LCO 50 ng once, April 4): 32.45
- Fruit Number/Plant (Cobra tomatoes; LCO 50 ng once, April 4): 1.3 b
- Flower Number/Plant (Cobra tomatoes; LCO 50 ng once, Feb. 28): 0.0 b
- Flower Number/Plant (Cobra tomatoes; LCO 50 ng once, Mar. 7): 2.5 ab
- Flower Number/Plant (Cobra tomatoes; LCO 50 ng once, Mar. 14): 7.4 ab
- Fruit Number/Plant (Cobra tomatoes; LCO 50 ng once, Mar. 14): 0.05 b
- Flower Number/Plant (Cobra tomatoes; LCO 50 ng once, Mar. 21): 14.55
- Fruit Number/Plant (Cobra tomatoes; LCO 50 ng once, Mar. 21): 0.25
- Flower Number/Plant (Cobra tomatoes; LCO 50 ng once, Mar. 28): 23.95
- Fruit Number/Plant (Cobra tomatoes; LCO 50 ng once, Mar. 28): 0.525 c
- Flower Number/Plant (Cobra tomatoes; LCO 50 ng twice, April 4): 32.2
- Fruit Number/Plant (Cobra tomatoes; LCO 50 ng twice, April 4): 2.5 a
- Flower Number/Plant (Cobra tomatoes; LCO 50 ng twice, Feb. 28): 0.2 a
- Flower Number/Plant (Cobra tomatoes; LCO 50 ng twice, Mar. 7): 3.2 a
- Flower Number/Plant (Cobra tomatoes; LCO 50 ng twice, Mar. 14): 8.4 a
- Fruit Number/Plant (Cobra tomatoes; LCO 50 ng twice, Mar. 14): 0.75 a
- Flower Number/Plant (Cobra tomatoes; LCO 50 ng twice, Mar. 21): 16.0
- Fruit Number/Plant (Cobra tomatoes; LCO 50 ng twice, Mar. 21): 1.8 a
- Flower Number/Plant (Cobra tomatoes; LCO 50 ng twice, Mar. 28): 25.15
- Fruit Number/Plant (Cobra tomatoes; LCO 50 ng twice, Mar. 28): 2.025 a
- Flower Number/Plant (Cobra tomatoes; LCO 75 ng once, April 4): 28.0
- Fruit Number/Plant (Cobra tomatoes; LCO 75 ng once, April 4): 1.45 b
- Flower Number/Plant (Cobra tomatoes; LCO 75 ng once, Feb. 28): 0.0 b
- Flower Number/Plant (Cobra tomatoes; LCO 75 ng once, Mar. 7): 2.85 ab
- Flower Number/Plant (Cobra tomatoes; LCO 75 ng once, Mar. 14): 7.35 ab
- Fruit Number/Plant (Cobra tomatoes; LCO 75 ng once, Mar. 14): 0.45 ab
- Flower Number/Plant (Cobra tomatoes; LCO 75 ng once, Mar. 21): 14.2
- Fruit Number/Plant (Cobra tomatoes; LCO 75 ng once, Mar. 21): 0.9 bc
- Flower Number/Plant (Cobra tomatoes; LCO 75 ng once, Mar. 28): 21.4
- Fruit Number/Plant (Cobra tomatoes; LCO 75 ng once, Mar. 28): 1.15 bc
- Flower Number/Plant (Cobra tomatoes; LCO 75 ng twice, April 4): 31.0
- Fruit Number/Plant (Cobra tomatoes; LCO 75 ng twice, April 4): 1.9 ab
- Flower Number/Plant (Cobra tomatoes; LCO 75 ng twice, Feb. 28): 0.0 b
- Flower Number/Plant (Cobra tomatoes; LCO 75 ng twice, Mar. 7): 3.25 a
- Flower Number/Plant (Cobra tomatoes; LCO 75 ng twice, Mar. 14): 7.35 ab
- Fruit Number/Plant (Cobra tomatoes; LCO 75 ng twice, Mar. 14): 0.6 ab
- Flower Number/Plant (Cobra tomatoes; LCO 75 ng twice, Mar. 21): 15.4
- Fruit Number/Plant (Cobra tomatoes; LCO 75 ng twice, Mar. 21): 1.0 b
- Flower Number/Plant (Cobra tomatoes; LCO 75 ng twice, Mar. 28): 23.35
- Fruit Number/Plant (Cobra tomatoes; LCO 75 ng twice, Mar. 28): 1.325 ab
- LCO treated plants flowered 3 days earlier than control ([1]; Experiment 1): over 80%
- shift in time of flowering ([1]; Experiment 1): 3 days
- more plants flowering as compared to control ([1]; Experiment 1, day 4 of assessment): 35%
- more plants flowering as compared to control ([1]; Experiment 1, day I of assessment): 25%
- difference in flowering between LCO treated plants and control ([1]; day 3 of assessment): 20%
- difference in flowering between LCO treated plants and control ([1]; initially): 10%
- Increase in No. of Tomatoes from 1 to 2 applications (tomato crop; 1 ng LCO per plant): 21
- Yield Increase for 2nd Application (tomato crop; 1 ng LCO per plant): 0.00 Kg per plant
- Cumulative Harvest to Sept 23. (24 plant Average) (tomato crop; [2]): Not as good as Control
- Cumulative Yield (kg) to Sept 23. Total weight for 24 plants (tomato crop; [2]): 57.7200 kg
- Total No. of Tomatoes per treatment (tomato crop; [2]): 300
- Yield increase over Control (tomato crop; [2]): 0.0000 Kg per plant
- Cumulative Harvest to Sept 23. (24 plant Average) (tomato crop; [3]): Not as good as Control
- Cumulative Yield (kg) to Sept 23. Total weight for 24 plants (tomato crop; [3]): 63.8760 kg
- Total No. of Tomatoes per treatment (tomato crop; [3]): 321
- Increase in No. of Tomatoes from 1 to 2 applications (tomato crop; 10 ng LCO per plant): 11
- Yield Increase for 2nd Application (tomato crop; 10 ng LCO per plant): 0.08 Kg per plant
- Cumulative Harvest to Sept 23. (24 plant Average) (tomato crop; [4]): 3.0093 Kg per plant
- Cumulative Yield (kg) to Sept 23. Total weight for 24 plants (tomato crop; [4]): 72.2240 kg
- Percent Yield inc. over Control (tomato crop; [4]): 17.7%
- Total No. of Tomatoes per treatment (tomato crop; [4]): 363
- Yield increase over Control (tomato crop; [4]): 0.4517 Kg per plant
- Cumulative Harvest to Sept 23. (24 plant Average) (tomato crop; [5]): 3.0905 Kg per plant
- Cumulative Yield (kg) to Sept 23. Total weight for 24 plants (tomato crop; [5]): 74.1720 kg
- Percent Yield inc. over Control (tomato crop; [5]): 12.6%
- Total No. of Tomatoes per treatment (tomato crop; [5]): 374
- Yield increase over Control (tomato crop; [5]): 0.3452 Kg per plant
- Increase in No. of Tomatoes from 1 to 2 applications (tomato crop; 100 ng LCO per plant): −8
- Yield Increase for 2nd Application (tomato crop; 100 ng LCO per plant): 0.06 Kg per plant
- Cumulative Harvest to Sept 23. (24 plant Average) (tomato crop; [6]): 2.7280 Kg per plant
- Cumulative Yield (kg) to Sept 23. Total weight for 24 plants (tomato crop; [6]): 65.4720 kg
- Percent Yield inc. over Control (tomato crop; [6]): 6.7%
- Total No. of Tomatoes per treatment (tomato crop; [6]): 351
- Yield increase over Control (tomato crop; [6]): 0.1703 Kg per plant
- Cumulative Harvest to Sept 23. (24 plant Average) (tomato crop; [7]): 2.7917 Kg per plant
- Cumulative Yield (kg) to Sept 23. Total weight for 24 plants (tomato crop; [7]): 67.0000 kg
- Percent Yield inc. over Control (tomato crop; [7]): 1.7%
- Total No. of Tomatoes per treatment (tomato crop; [7]): 343
- Yield increase over Control (tomato crop; [7]): 0.0463 Kg per plant
- Increase in No. of Tomatoes from 1 to 2 applications (tomato crop; 1000 ng LCO per plant): 35
- Yield Increase for 2nd Application (tomato crop; 1000 ng LCO per plant): 0.35 Kg per plant
- Cumulative Harvest to Sept 23. (24 plant Average) (tomato crop; [8]): 2.6115 Kg per plant
- Cumulative Yield (kg) to Sept 23. Total weight for 24 plants (tomato crop; [8]): 62.6760 kg
- Percent Yield inc. over Control (tomato crop; [8]): 2.1%
- Total No. of Tomatoes per treatment (tomato crop; [8]): 326
- Yield increase over Control (tomato crop; [8]): 0.0538 Kg per plant
- Cumulative Harvest to Sept 23. (24 plant Average) (tomato crop; [9]): 2.9588 Kg per plant
- Cumulative Yield (kg) to Sept 23. Total weight for 24 plants (tomato crop; [9]): 71.0120 kg
- Percent Yield inc. over Control (tomato crop; [9]): 7.8%
- Total No. of Tomatoes per treatment (tomato crop; [9]): 361
- Yield increase over Control (tomato crop; [9]): 0.2135 Kg per plant
- increase in numbers of tomatoes (tomato crop; [10]): ~20%
- yield increase over the season (tomato crop; [10]): 17%
- advanced fruiting over control (tomato crop; 10 ng/plant): ~10 days
- advanced fruiting over control (tomato crop; 100 ng/plant): ~10 days

Reference: patent US20130244879A1, “USE OF LIPO-CHITOOLIGOSACCHARIDES TO INITIATE EARLY FLOWERING AND FRUIT DEVELOPMENT IN PLANTS AND RELATED METHODS AND COMPOSITIONS” (NOVOZYMES BIOLOGICALS HOLDING A/S, priority 2003, published 2013)
